Test results: patent US11578130B2, “Regulatable chimeric antigen receptor” (Novartis AG, priority 2013, dated 2023)
Where two headings read alike, the source gives them in different places.

Tests used:
[1] = test system: H1N1 A/California/07/2009; test: Clinical trial: hemagglutination inhibition titers and seroconversion, vaccine strain A/H1N1; format: in vivo, human
Protocol: (§1) The trial was observer-blind because the placebo in the RAD001 0.5 mg daily and 20 mg weekly cohorts differed slightly from the RAD001 tablets in those cohorts. […] The treatment duration for all cohorts was 6 weeks during which time subjects underwent safety evaluations in the clinic every 2 weeks. After subjects had been dosed for 4 weeks, RAD001 steady state levels were measured pre-dose and at one hour post dose. After completing the 6 week course of study drug, subjects were given a 2 week drug free break to reverse any possible RAD001-induced immunosuppression, and then were given a 2012 seasonal influenza vaccination (Agrippal®, Novartis Vaccines and Diagnostics, Siena, Italy) containing the strains H1N1 A/California/07/2009, H3N2 A/Victoria/210/2009, B/Brisbane/60/2008. Four weeks after influenza vaccination, subjects had serum collected for influenza titer measurements. Antibody titers to the 3 influenza vaccine strains as well as to 2 heterologous strains (A/H1N1 strain A/New Jersey/8/76 and A/H3N2 strain A/Victoria/361/11) were measured by standard hemagglutination inhibition assay (Kendal, A P et al. (1982) Concepts and procedures for laboratory-based influenza surveillance. Atlanta: Centers for Disease Control and Prevention B17-B35).
(§2) The ability of RAD001 to improve immune function in elderly volunteers was evaluated by measuring the serologic response to the 2012 seasonal influenza vaccine. The hemagglutination inhibition (HI) geometric mean titers (GMT) to each of the 3 influenza vaccine strains at baseline and 4 weeks after influenza vaccination are provided in Table 22. The primary analysis variable was the HI GMT ratio (4 weeks post vaccination/baseline). […] This endpoint was chosen because a 1.2-fold increase in the influenza GMT ratio induced by the MF-59 vaccine adjuvant was associated with a decrease in influenza illness (Iob, A et al. (2005) Epidemiol Infect 133:687-693).
(§3) Rates of seroconversion 4 weeks after influenza vaccination were also evaluated. Seroconversion was defined as the change from a negative pre-vaccination titer (i.e., HI titer <1:10) to post-vaccination HI titer ≥1:40 or at least 4-fold increase from a non-negative (≥1:10) pre-vaccination HI titer.

[2] = test system: A/H1N1 strain A/New Jersey/8/76; format: in vivo, human
B/Brisbane/60/2008 = test: Clinical trial: hemagglutination inhibition titers and seroconversion, vaccine strain B; format: in vivo, human
Protocol: as §1, §2, §3

[3] = Clinical trial: energy and exercise questionnaires one year after dosing; format: in vivo, human; conditions: 0.5 mg daily dosing cohort
[4] = cited from earlier work
[5] = test system: Jurkat cells with NFAT-LUC reporter (JNL); test: Activation of CD19 RCAR with extracellular FKBP/FRB switch (half and full switches) by RAD001, NFAT luciferase; format: cell-based; conditions: extracellular half switch 1; 5 nM and 50 nM
Protocol: The RCAR constructs were expressed in a Jurkat reporter cell line. Jurkat cells with NFAT-LUC reporter (JNL) were grown to the density of 0.5×10^6/ml in Jurkat cell growth media with puromycin at 0.5 μg/ml. For each transfection 2.5×10^6 cells were spin down at 100 g for 10 minutes. Two μg of DNA per RCAR construct were used per transfection. Amaxa Nucleofector solution V and supplement I was mixed and 100 μl was added into the tube with DNA construct. The mixture was then added to the cells and transferred to the electroporation cuvette. Electroporation was done under setting X-001 using Amaxa Nucleofector II Device. 0.5 ml of growth media was added immediately after electroporation and the mixture were transferred into 2 ml growth media in one well of the 6-well plate.
After one hour, RAD001 compound was applied at various concentrations: 0 nM, 0.01 nM, 0.03 nM, 0.1 nM, 0.3 nM, 1 nM, 5 nM, and 50 nM. Tissue culture plate was coated with 5 μg/ml of anti anti-CD19 antibody or isotype control for 2 hrs, blocked with the blocking buffer (DPBS with 5% serum) for 1 hour. The transfected cells with or without Rad001 were resuspended and added to the target plate with 100 μl per well and incubated for 18 hrs. Luciferase One Glo reagent 100 μl was added per well. The samples were incubated for 5 min at 37° C. and then luminescence was measured using Envision plate reader.

[6] = Baseline (2 weeks prior to influenza vaccination), RAD001 0.5 mg daily, N = 50
[7] = Baseline (2 weeks prior to influenza vaccination), RAD001 5 mg weekly, N = 49
[8] = Intention to Treat Population, 0.5 mg, N = 48
[9] = Intention to Treat Population, 5 mg, N = 49
[10] = Intention to Treat Population, 20 mg, N = 48
[11] = Subjects with Baseline Titers <=40, 5 mg
[12] = Subjects with Baseline Titers <=40, 20 mg
[13] = Week 4 after influenza vaccination, RAD001 0.5 mg daily, N = 50
[14] = Week 4 after influenza vaccination, RAD001 5 mg weekly, N = 49
[15] = Week 4 after influenza vaccination, RAD001 20 mg weekly, N = 49

Question: Which results are given for `CO[C@H]1C[C@@H]2CC[C@@H](C)[C@@](O)(O2)C(=O)C(=O)N2CCCC[C@H]2C(=O)O[C@H]([C@H](C)C[C@@H]2CC[C@@H](OCCO)[C@H](OC)C2)CC(=O)[C@H](C)/C=C(\C)[C@@H](O)[C@@H](OC)C(=O)[C@H](C)C[C@H](C)/C=C/C=C/C=C/1C` [RAD001, (1R,9S,12S,15R,16E,18R,19R,21R,23S,24E,26E,28E,30S,32S,35R)-1,18-dihydroxy-12-{(1R)-2-[(1S,3R,4R)-4-(2-hydroxyethoxy)-3-methoxycyclohexyl]-1-methylethyl}-19,30-dimethoxy-15,17,21,23,29,35-hexamethyl-11,36-dioxa-4-aza-tricyclo[30.3.1.04,9]hexatriaconta-16,24,26,28-tetraene-2,3,10,14,20-pentaone]?
Answer: HI GMT, A/H1N1 [1, 6]: 102.8; HI GMT, A/H1N1 [1, 7]: 84.2; HI GMT, A/H1N1 ([1]; Baseline (2 weeks prior to influenza vaccination), RAD001 20 mg weekly, N = 49): 90.1; Percent of subjects with seroconversion to influenza 4 weeks after vaccination, H1N1 [1, 8]: 27%; Percent of subjects with seroconversion to influenza 4 weeks after vaccination, H1N1 [1, 9]: 27%; Percent of subjects with seroconversion to influenza 4 weeks after vaccination, H1N1 [1, 10]: 17%; GMT ratio (week 4 post vaccination/baseline), A/H1N1 ([1]; RAD001 0.5 mg daily, N = 50): 2.6; GMT ratio (week 4 post vaccination/baseline), A/H1N1 ([1]; RAD001 5 mg weekly, N = 49): 2.5; GMT ratio (week 4 post vaccination/baseline), A/H1N1 ([1]; RAD001 20 mg weekly, N = 49): 1.8; Percent of subjects with seroconversion to influenza 4 weeks after vaccination, H1N1 ([1]; Subjects with Baseline Titers <=40, 0.5 mg): 42%; Percent of subjects with seroconversion to influenza 4 weeks after vaccination, H1N1 [1, 11]: 45%; Percent of subjects with seroconversion to influenza 4 weeks after vaccination, H1N1 [1, 12]: 36%; HI GMT, A/H1N1 [1, 13]: 190.2; HI GMT, A/H1N1 [1, 14]: 198.73; HI GMT, A/H1N1 [1, 15]: 129.7; Percentage of subjects who seroconvert to heterologous strain 4 weeks after seasonal influenza vaccination, A/H1N1 strain: A/New Jersey/8/76 ([2]; RAD001 5 mg weekly): 16%; Percentage of subjects who seroconvert to heterologous strain 4 weeks after seasonal influenza vaccination, A/H1N1 strain: A/New Jersey/8/76 ([2]; RAD001 20 mg weekly): 8%; increase in the HI GMT ratios for the heterologous strain ([2]; RAD001 as compared to placebo cohorts): higher; HI GMT, B (B/Brisbane/60/2008; [6]): 44.2; HI GMT, B (B/Brisbane/60/2008; [7]): 64.8; Percent of subjects with seroconversion to influenza 4 weeks after vaccination, B (B/Brisbane/60/2008; [8]): 27%; Percent of subjects with seroconversion to influenza 4 weeks after vaccination, B (B/Brisbane/60/2008; [9]): 22%; Percent of subjects with seroconversion to influenza 4 weeks after vaccination, B (B/Brisbane/60/2008; [10]): 19%; GMT ratio (week 4 post vaccination/baseline), B (B/Brisbane/60/2008; RAD001 0.5 mg daily, N = 50): 2.5; GMT ratio (week 4 post vaccination/baseline), B (B/Brisbane/60/2008; RAD001 5 mg weekly, N = 49): 2.2; GMT ratio (week 4 post vaccination/baseline), B (B/Brisbane/60/2008; RAD001 20 mg weekly, N = 49): 2.1; Percent of subjects with seroconversion to influenza 4 weeks after vaccination, B (B/Brisbane/60/2008; Subjects with Baseline Titers <=40, 0.5 mg, * p-value < 0.05 versus placebo): 40* Percent; Percent of subjects with seroconversion to influenza 4 weeks after vaccination, B (B/Brisbane/60/2008; [11]): 33%; Percent of subjects with seroconversion to influenza 4 weeks after vaccination, B (B/Brisbane/60/2008; [12]): 28%; HI GMT, B (B/Brisbane/60/2008; [13]): 98.4; HI GMT, B (B/Brisbane/60/2008; [14]): 117.3; HI GMT, B (B/Brisbane/60/2008; [15]): 99.2; self-reported energy and exercise ability compared to placebo [3]: increased energy and exercise ability; trough level of RAD001 ([4]; 10 mg daily oncology dosing regimen): approximately 20 ng/ml; trough level of RAD001 ([4]; 0.75-1.5 mg bid transplant dosing regimen): approximately 3 ng/ml; NFAT activity at the higher dosages of RAD001 [5]: no inhibition of activity was observed
